Target: T1, His6-PYR1 / biotin-PP2C (Arabidopsis thaliana, UniProt O49686)
T1 construct: made in house; host or cells: E. coli is stated for PYL1, PYL2 and the PP2Cs, not expressly for PYR1
T1 sequence (O49686 1-191): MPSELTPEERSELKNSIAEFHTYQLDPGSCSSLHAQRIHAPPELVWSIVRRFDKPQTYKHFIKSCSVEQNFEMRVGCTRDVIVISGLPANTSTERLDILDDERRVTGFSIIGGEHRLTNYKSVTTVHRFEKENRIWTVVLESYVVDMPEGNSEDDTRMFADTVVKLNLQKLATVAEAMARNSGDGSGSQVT
Assay: AlphaScreen luminescence proximity assay, PYR1-PP2C interaction
Type: biochemical
Details: 100 nM His6-PYR1, 100 nM biotin-PP2C, 100 μM agonist; normalized against a pyrabactin control
Description: (§1) Mutant proteins were expressed as H6GST-fusion proteins and purified by glutathione sepharose chromatography. Protein-protein interactions were determined by luminescence proximity AlphaScreen assay. Biotinylated PP2C proteins for the luminescence proximity assay were generated by in vivo biotinylation of avitag-PP2C fusion proteins. PP2C phosphatase activity was measured by phosphate release from a SnRK2.6 phosphoprotein.
(§2) Interactions between PYR/PYL and PP2Cs were assessed by luminescence-proximity AlphaScreen technology (Perkin Elmer). Briefly, biotinylated PP2Cs were attached to streptavidin-coated donor beads, and H6-tagged PYR/PYL receptors were attached to nickel-chelated acceptor beads. The donor and acceptor beads were brought into proximity by the interactions between PYR/PYLs and PP2Cs, which were measured with and without ligands. When excited by a laser beam of 680 nm, the donor beam emits singlet oxygen that activates thioxene derivatives in the acceptor beads, which releases photons of 520-620 nm as the binding signal. The experiments were conducted with 100 nM of PP2Cs and PYR/PYL proteins in the presence of 5 ug/ml donor and acceptor beads in a buffer of 50 mM MOPS, pH7.4, 50 mM NaF, […], and 0.1 mg/ml bovine serum albumin. The results were based on an average of three experiments with standard errors typically less than 10% of the measurements.
(§3) Values were determined in different experiments and normalized against a pyrabactin control. Blank spaces mean no experimental data is available. Key (photon counts (binding signal units) in Alphascreen luminescence proximity assay): “+++ is >75,000; ++ is 25,000−75,000; + is <25,000.

| SMILES | Stimulation of the interaction between PYR1 and PP2C (binding signal) |
| --- | --- |
| CC(=O)c1cccc(N/C=C/C(=O)c2ccc(Cl)c(Cl)c2)c1 [Compound 15] | + (+ is <25,000) |
| O=S(=O)(NCCOc1ccccc1)c1ccc2ccccc2c1 [Compound 8] | + (+ is <25,000) |
| CCCCOc1cccc(C(=O)NC(=S)Nc2ccc(S(N)(=O)=O)cc2)c1 [Compound 9] | + (+ is <25,000) |

Target: T2, His6-PYL1 / biotin-PP2C (Arabidopsis thaliana, UniProt Q8VZS8)
T2 construct: PYL1 (residues 36-211), PYL2 (residues 14-188), and HAB1 (residues 172-511) were prepared as recombinant proteins in E. coli; made in house; host or cells: E. coli
T2 sequence (Q8VZS8 36-211): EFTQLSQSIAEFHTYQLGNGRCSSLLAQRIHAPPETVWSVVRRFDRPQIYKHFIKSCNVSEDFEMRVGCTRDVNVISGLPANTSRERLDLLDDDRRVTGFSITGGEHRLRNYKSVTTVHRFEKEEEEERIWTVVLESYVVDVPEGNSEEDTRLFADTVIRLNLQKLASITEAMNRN
Assay: AlphaScreen luminescence proximity assay, PYL1-PP2C interaction
Type: biochemical
Details: 100 nM His6-PYL1, 100 nM biotin-PP2C, 100 μM agonist; normalized against a pyrabactin control
Description: as §1, §2, §3

| SMILES | Stimulation of the interaction between PYL1 and PP2C (binding signal) |
| --- | --- |
| CC(=O)c1cccc(N/C=C/C(=O)c2ccc(Cl)c(Cl)c2)c1 [Compound 15] | + (+ is <25,000) |

Target: T3, His6-PYL2 / biotin-PP2C (Arabidopsis thaliana, UniProt O80992)
T3 construct: PYL2 (residues 14-188), and HAB1 (residues 172-511) were prepared as recombinant proteins in E. coli; made in house; host or cells: E. coli
T3 sequence (O80992 14-188): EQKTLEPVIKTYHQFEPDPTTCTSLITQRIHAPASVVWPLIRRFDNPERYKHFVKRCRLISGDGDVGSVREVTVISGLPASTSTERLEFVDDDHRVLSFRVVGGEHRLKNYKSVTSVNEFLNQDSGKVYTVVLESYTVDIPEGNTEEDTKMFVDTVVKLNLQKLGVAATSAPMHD
Assay: AlphaScreen luminescence proximity assay, PYL2-PP2C interaction
Type: biochemical
Details: 100 nM His6-PYL2, 100 nM biotin-PP2C, 100 μM agonist; normalized against a pyrabactin control
Description: as §1, §2, §3

| SMILES | Stimulation of the interaction between PYL2 and PP2C (binding signal) |
| --- | --- |
| CC(=O)c1cccc(N/C=C/C(=O)c2ccc(Cl)c(Cl)c2)c1 [Compound 15] | ++ (++ is 25,000−75,000) |
| O=S(=O)(NCCOc1ccccc1)c1ccc2ccccc2c1 [Compound 8] | + (+ is <25,000) |
| CCCCOc1cccc(C(=O)NC(=S)Nc2ccc(S(N)(=O)=O)cc2)c1 [Compound 9] | + (+ is <25,000) |

Target: T4, His6-PYL3 / biotin-PP2C (Arabidopsis thaliana, UniProt Q9SSM7)
T4 construct: made in house; host or cells: not expressly stated for PYL3
T4 sequence (Q9SSM7 1-209): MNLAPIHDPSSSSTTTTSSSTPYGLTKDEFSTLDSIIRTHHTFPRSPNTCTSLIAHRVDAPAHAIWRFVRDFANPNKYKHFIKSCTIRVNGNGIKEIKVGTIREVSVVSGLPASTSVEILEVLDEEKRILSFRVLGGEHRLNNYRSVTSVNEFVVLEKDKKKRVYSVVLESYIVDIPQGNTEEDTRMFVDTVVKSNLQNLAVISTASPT
Assay: AlphaScreen luminescence proximity assay, PYL3-PP2C interaction
Type: biochemical
Details: 100 nM His6-PYL3, 100 nM biotin-PP2C, 100 μM agonist; normalized against a pyrabactin control
Description: as §1, §2, §3

| SMILES | Stimulation of the interaction between PYL3 and PP2C (binding signal) |
| --- | --- |
| CC(=O)c1cccc(N/C=C/C(=O)c2ccc(Cl)c(Cl)c2)c1 [Compound 15] | ++ (++ is 25,000−75,000) |
| O=S(=O)(NCCOc1ccccc1)c1ccc2ccccc2c1 [Compound 8] | ++ (++ is 25,000−75,000) |
| CCCCOc1cccc(C(=O)NC(=S)Nc2ccc(S(N)(=O)=O)cc2)c1 [Compound 9] | + (+ is <25,000) |
